Measurements taken from US9636323B2, “Method of treating cancer that overexpresses TopBP1” (Baylor College of Medicine, priority 2014, dated 2017).

How the values were obtained:
[1] = tested on: p53 targets p21 and Bax in HCT116 cells; assay: Induction of p21 and Bax in isogenic p53+/+ and p53−/− HCT116 cells; type: cell-based; conditions: p53+/+ versus p53−/− HCT116
[2] = tested on: TopBP1 checkpoint activation (Chk1); assay: HU-induced Chk1 activation; type: cell-based
Method: (§1) MDA-MB468 cells were lysed with TNN buffer (Liu et al. 2003). An aliquot of cell lysates was lysed with SDS lysis buffer and the rest of cell lysates were incubated with appropriate antibodies or beads at 4° C. for 3-12 h. Anti-FLAG beads (Sigma) were washed three times with TNN buffer. Immunoprecipitates were fractionated by SDS-PAGE and electro-transferred to Immobilon-P membrane (Millipore). Equal amount of protein loading was validated with Ponceau-S staining. The specific signals were detected by incubating with appropriate antibody. All primary antibodies were used at 1:1000 dilution and horseradish peroxidase (HRP)-conjugated secondary antibodies were used at 1:5000 dilution for immunoblotting. E2F1 (C-20 and KH-95), p53 (FL393), p63 (4A4 and H-129), p73 (H-79), p21 (C-19), Bax (N-20), GST (B-14), c-Myc (A14), Miz1 (H-190), Chk1 (G4), Actin (C-2) and GAPDH (6C5) antibodies were purchased from Santa Cruz. TopBP1 (mouse monoclonal) and Aid antibodies were purchased from BD Transduction Laboratories. TopBP1 (BL893, Rabbit polyclonal) antibody was purchased from Bethyl. Mouse monoclonal anti-phospho-γH2AX was purchased from Millipore. Phospho-Chk1 (Ser345) antibody was purchased from Cell signaling. FLAG (F7425) antibody was purchased from Sigma. Mouse monoclonal anti-p73 (IMG-246) was purchased from IMGENEX.

[3] = tested on: A549; conditions: NCI-DTP database; cited from earlier work
[4] = tested on: MDA-MB468 cells; assay: Mammosphere formation; type: cell-based, human; conditions: 2.5 μM, 11 days
Method: For in vitro mammosphere culture, ˜5000 MDA-MB468 cells/well were seeded into a Ultra-low Adherent 6-well plate (Stem Cell Technologies) with 2 ml/well fresh complete MammoCult™ medium (Stem Cell Technologies) containing the MammoCult® Basal Medium, MammoCult® Proliferation Supplement, 4 μg/ml Heparin (Stem Cell Technologies) and fresh 0.48 μg/ml Hydrocortisone. Cells were incubated in a 5% CO2 incubator at 37° C. for 7-11 days. […] Each treatment was done in triplicate.

[5] = tested on: NCI-H522; conditions: NCI-DTP database; cited from earlier work
[6] = tested on: mutp53(R249S)/p73 interaction; assay: Anti-p73 immunoprecipitation in BT549 cells; type: cell-based, human; conditions: 2.5 μM, 5 h
Method: as §1

[7] = tested on: Hs-578T; conditions: NCI-DTP database; cited from earlier work
[8] = target: T1, TopBP1/mutp53(R273H) interaction (Homo sapiens, UniProt Q92547); assay: Co-immunoprecipitation in MDA-MB468 cells, TopBP1/mutp53; type: cell-based; conditions: 2.5 μM, 5 h
T1 construct: endogenous in cells; host or cells: MDA-MB468
T1 sequence (Q92547 whole entry, stated change not applied): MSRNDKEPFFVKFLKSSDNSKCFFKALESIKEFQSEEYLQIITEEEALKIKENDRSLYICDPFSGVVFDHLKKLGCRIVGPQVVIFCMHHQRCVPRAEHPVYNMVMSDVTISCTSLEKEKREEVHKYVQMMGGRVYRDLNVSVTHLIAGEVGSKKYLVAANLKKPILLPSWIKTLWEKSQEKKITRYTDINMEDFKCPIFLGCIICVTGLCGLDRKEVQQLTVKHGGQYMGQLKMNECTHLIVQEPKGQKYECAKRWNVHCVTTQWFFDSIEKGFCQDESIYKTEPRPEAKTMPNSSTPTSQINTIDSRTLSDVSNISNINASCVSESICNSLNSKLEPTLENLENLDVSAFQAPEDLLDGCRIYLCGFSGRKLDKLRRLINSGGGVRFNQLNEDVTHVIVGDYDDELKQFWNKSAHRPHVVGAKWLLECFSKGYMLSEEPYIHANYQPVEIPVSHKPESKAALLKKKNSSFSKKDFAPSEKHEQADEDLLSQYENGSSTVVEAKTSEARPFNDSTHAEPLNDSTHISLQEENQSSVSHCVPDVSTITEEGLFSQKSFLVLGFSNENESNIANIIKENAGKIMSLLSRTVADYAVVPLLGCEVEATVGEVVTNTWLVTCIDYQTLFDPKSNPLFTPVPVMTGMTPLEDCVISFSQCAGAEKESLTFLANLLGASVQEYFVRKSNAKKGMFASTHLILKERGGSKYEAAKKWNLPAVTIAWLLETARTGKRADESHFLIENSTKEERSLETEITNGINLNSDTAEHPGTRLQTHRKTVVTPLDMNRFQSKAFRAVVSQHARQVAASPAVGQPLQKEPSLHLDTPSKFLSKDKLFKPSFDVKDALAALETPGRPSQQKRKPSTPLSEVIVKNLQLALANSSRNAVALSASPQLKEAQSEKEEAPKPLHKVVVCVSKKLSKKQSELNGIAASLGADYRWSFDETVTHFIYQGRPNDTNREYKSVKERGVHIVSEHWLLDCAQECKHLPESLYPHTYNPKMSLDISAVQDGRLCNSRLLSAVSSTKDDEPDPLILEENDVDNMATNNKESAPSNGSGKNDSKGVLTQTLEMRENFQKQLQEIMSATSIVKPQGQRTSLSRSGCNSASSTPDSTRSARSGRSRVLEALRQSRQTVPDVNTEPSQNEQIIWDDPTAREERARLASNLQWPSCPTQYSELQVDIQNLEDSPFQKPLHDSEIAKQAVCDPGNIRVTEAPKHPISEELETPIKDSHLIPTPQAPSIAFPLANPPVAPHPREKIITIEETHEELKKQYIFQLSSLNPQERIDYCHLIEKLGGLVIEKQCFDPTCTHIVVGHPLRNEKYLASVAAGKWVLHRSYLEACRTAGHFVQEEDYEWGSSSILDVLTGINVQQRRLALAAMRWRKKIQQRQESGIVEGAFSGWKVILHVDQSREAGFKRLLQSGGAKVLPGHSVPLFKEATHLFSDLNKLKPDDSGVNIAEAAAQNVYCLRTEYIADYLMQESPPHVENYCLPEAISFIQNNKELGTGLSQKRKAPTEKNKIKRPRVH
Method: as §1

[9] = tested on: MCF10A cells; assay: MTS assay, MCF10A; type: cell-based, human; conditions: co-treated with doxorubicin, Calcein AM 2.5 μM, 5 h
Method: Then 50 μl of MTS reagent (CellTiter 96® AQueous One Solution Cell Proliferation Assay, Promega) was added to each well, covered from light and incubated for 1 h at 37.0 incubator to develop purple color. The samples were measured at 490 nm in a plate reader (BioTek Synergy HT) against a blank 48-well plate. Each assay was done in triplicate.

Compound: CC(=O)OCOC(=O)CN(CC(=O)OCOC(C)=O)Cc1cc2c(cc1OC(C)=O)Oc1cc(OC(C)=O)c(CN(CC(=O)OCOC(C)=O)CC(=O)OCOC(C)=O)cc1C21OC(=O)c2ccccc21 [Calcein AM, Calcein AM (acetoxymethyl ester)]
- induction of p21 and Bax [1]: observed on in p53^+/+, but not in p53^−/−
- HU-induced Chk1 activation [2]: did not block HU-induced Chk1 activation
- GI50 [3]: < 1000 nM
- mammosphere formation [4]: blocked
- GI50 [5]: < 1000 nM
- binding of p73 to mutp53(R249S) [6]: release of p73 from mutp53(R249S)
- GI50 [7]: < 400 nM
- TopBP1/mutp53 interaction at physiological levels [8]: inhibited
- doxorubicin sensitivity (MTS) [9]: not
